Assay in all cases: cell-based
The target in one experiment is hNav1.5 (Homo sapiens, UniProt Q14524).
The target of a further experiment is hNav1.7 (Homo sapiens, UniProt Q15858). In kind it is cell-based. The conditions noted are these: read-out: IWQ Use Nav1.7.
In a further experiment the target is hNav1.3 (Homo sapiens, UniProt Q9NY46). The conditions noted are these: IonWorks Quattro, […], read-out: IWQ Use Nav1.3. For orientation: The patch-clamp technique gives a direct electrical read-out from membranes.
[1] abbreviates: IonWorks Quattro, clamped to −110 mV, depolarized to −10 mV, 5 min after compound, n=2.
[2] abbreviates: IonWorks Quattro, use-dependent, […], read-out: IWQ Use Nav1.5.

pIC50: −log10 of the molar value. Like-named read-outs stand apart in the source and are kept apart here. Positions of bridges follow the written chain, without caps; N, C: chain ends. Residues, ends and D or L forms follow the SMILES beside them. Bounds are passed on as bounds.

For orientation: IC50 means the concentration that inhibits the measured activity by half.

Chain of hNav1.3 (Q9NY46 whole entry, looked up): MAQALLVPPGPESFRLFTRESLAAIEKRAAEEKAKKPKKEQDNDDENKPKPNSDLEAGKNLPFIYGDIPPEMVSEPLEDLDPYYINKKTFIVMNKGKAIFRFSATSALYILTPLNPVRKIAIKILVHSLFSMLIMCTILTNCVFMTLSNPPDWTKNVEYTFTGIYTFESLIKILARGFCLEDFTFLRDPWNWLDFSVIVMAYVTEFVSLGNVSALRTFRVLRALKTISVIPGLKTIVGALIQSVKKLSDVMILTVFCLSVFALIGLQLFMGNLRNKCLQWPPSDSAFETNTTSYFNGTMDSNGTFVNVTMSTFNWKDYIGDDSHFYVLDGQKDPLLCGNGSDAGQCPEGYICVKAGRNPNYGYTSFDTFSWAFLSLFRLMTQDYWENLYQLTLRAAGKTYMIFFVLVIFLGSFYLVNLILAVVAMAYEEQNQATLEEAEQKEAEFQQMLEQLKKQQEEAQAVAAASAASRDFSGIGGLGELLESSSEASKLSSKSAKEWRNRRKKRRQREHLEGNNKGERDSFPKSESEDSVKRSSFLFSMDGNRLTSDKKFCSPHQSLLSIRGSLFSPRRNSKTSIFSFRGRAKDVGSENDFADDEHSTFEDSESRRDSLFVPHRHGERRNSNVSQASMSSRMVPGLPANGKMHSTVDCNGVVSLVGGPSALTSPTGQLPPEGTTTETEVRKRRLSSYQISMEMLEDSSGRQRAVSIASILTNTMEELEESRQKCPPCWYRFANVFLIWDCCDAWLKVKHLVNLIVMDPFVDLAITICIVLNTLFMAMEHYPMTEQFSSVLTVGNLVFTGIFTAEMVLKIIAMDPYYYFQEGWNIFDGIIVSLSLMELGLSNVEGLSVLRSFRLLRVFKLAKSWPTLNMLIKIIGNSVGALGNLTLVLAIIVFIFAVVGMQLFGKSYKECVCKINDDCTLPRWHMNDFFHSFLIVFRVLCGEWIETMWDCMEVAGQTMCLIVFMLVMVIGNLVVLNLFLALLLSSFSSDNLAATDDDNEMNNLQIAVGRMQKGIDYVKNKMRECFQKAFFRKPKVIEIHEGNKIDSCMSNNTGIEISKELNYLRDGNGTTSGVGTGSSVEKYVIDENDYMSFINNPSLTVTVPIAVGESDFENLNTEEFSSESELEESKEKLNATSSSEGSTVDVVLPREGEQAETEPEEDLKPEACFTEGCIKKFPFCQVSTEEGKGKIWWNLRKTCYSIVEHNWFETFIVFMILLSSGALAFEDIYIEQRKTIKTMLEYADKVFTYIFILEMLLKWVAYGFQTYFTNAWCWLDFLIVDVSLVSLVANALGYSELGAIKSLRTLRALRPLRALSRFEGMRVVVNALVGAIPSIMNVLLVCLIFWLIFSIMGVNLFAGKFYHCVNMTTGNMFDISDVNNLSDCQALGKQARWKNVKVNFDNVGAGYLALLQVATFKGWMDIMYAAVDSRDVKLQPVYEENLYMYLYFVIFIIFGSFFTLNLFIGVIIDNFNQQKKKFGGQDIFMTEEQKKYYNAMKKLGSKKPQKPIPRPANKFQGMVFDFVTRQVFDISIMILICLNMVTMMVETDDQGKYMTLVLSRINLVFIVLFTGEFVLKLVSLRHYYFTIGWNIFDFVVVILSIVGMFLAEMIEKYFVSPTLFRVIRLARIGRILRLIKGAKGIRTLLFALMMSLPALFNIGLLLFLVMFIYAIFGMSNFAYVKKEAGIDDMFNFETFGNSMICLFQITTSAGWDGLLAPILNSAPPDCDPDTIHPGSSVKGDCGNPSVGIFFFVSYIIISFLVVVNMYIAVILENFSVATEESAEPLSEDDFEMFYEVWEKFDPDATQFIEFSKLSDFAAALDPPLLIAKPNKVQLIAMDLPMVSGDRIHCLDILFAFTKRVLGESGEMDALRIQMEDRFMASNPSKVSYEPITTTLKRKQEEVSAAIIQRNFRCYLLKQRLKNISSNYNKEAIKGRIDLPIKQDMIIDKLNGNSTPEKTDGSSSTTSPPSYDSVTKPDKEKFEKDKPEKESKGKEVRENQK
Chain of hNav1.5 (Q14524 whole entry, looked up): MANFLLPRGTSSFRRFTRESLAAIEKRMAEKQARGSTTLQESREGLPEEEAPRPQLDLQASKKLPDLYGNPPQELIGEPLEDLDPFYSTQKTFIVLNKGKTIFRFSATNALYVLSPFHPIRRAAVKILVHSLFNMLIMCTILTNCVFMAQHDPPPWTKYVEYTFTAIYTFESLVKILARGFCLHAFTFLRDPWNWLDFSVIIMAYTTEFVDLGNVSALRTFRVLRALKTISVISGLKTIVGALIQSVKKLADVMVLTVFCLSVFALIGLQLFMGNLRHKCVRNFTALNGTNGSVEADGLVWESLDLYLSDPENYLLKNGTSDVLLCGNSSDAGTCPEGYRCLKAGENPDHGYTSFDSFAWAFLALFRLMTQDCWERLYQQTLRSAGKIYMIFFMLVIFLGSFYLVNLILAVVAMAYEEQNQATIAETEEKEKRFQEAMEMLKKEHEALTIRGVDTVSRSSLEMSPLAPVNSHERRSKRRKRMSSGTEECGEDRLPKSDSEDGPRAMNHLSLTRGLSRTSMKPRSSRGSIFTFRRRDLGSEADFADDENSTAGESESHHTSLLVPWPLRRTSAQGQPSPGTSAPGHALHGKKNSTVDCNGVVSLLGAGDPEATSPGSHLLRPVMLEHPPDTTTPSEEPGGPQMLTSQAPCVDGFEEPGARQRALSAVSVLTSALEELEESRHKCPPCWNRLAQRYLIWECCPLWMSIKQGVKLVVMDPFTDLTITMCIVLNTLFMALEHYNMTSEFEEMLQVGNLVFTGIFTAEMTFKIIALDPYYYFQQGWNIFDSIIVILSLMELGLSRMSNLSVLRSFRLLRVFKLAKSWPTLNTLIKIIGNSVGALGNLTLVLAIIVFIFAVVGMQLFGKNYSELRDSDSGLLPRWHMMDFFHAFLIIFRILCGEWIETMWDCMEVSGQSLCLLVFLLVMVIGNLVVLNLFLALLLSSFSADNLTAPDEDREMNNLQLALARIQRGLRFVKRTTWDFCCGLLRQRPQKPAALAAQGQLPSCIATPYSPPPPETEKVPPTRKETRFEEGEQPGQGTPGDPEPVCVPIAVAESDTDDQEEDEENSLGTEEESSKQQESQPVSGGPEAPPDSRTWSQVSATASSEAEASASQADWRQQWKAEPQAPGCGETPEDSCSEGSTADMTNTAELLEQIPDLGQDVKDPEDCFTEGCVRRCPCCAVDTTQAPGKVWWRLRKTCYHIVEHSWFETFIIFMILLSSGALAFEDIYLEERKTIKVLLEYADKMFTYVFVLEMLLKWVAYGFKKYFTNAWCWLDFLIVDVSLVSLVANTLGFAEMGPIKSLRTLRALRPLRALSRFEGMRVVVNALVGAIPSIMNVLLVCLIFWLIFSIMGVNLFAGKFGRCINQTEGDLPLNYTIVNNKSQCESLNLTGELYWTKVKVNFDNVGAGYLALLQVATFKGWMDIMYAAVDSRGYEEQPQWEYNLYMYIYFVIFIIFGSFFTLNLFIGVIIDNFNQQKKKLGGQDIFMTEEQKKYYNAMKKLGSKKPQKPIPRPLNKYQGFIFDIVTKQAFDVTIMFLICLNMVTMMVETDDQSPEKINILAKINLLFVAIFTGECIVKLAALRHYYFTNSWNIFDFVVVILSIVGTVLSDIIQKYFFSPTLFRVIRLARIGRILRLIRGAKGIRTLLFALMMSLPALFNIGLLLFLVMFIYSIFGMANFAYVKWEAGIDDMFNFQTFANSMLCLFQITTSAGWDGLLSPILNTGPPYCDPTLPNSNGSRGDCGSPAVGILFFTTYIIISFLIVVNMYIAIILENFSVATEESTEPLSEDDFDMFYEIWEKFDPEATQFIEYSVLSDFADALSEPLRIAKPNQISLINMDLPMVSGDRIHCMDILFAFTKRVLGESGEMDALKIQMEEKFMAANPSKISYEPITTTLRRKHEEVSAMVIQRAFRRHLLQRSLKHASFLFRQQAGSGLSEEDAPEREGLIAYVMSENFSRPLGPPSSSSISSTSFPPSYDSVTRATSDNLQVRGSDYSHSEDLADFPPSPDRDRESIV

For `CC[C@H](C)[C@@H]1NC(=O)[C@@H]2CSSC[C@@H]3NC(=O)[C@H](C(C)C)NC(=O)[C@H](CC(C)C)NC(=O)[C@H](CC(N)=O)NC(=O)[C@@H]4CCCN4C(=O)[C@H](CCCNC(=N)N)NC(=O)[C@H](CSSC[C@H](NC(=O)[C@@H](N)CC(=O)O)C(=O)N[C@@H](CC(C)C)C(=O)NCC(=O)N[C@@H](CCC(=O)O)C(=O)N[C@@H](CCSC)C(=O)N[C@@H](CCCNC(=N)N)C(=O)N[C@@H](CCCCN)C(=O)N2)NC(=O)[C@H](CSSC[C@@H](C(=O)N[C@@H](CCCCN)C(=O)N[C@@H](Cc2ccc(O)cc2)C(=O)N[C@H](C(=O)N[C@@H](Cc2ccccc2)C(N)=O)C(C)C)NC(=O)[C@H](Cc2c[nH]c4ccccc24)NC(=O)[C@H](CCCCN)NC(=O)[C@H](Cc2cnc[nH]2)NC(=O)[C@H]([C@@H](C)O)NC(=O)[C@H](CCCNC(=N)N)NC(=O)[C@H](CO)NC3=O)NC(=O)[C@H](CCCCN)NC(=O)[C@H](CC(=O)O)NC(=O)[C@H](CC(N)=O)NC(=O)[C@H](CC(=O)O)NC(=O)[C@@H]2CCCN2C1=O` [SEQ ID NO: 143] (H-DCLGEMRKCIPDNDKCCRPNLVCSRTHKWCKYVF-NH2; disulfide 2-17, 9-23, 16-30), the pIC50 against hNav1.5 (IWQ Use Nav1.5) is 5.00; at hNav1.7 (setting [1]), 4.75.

With `CC[C@H](C)[C@@H]1NC(=O)[C@@H]2CSSC[C@@H]3NC(=O)[C@H](C(C)C)NC(=O)[C@H](CC(C)C)NC(=O)[C@H](CC(N)=O)NC(=O)[C@@H]4CCCN4C(=O)[C@H](CCCNC(=N)N)NC(=O)[C@H](CSSC[C@H](NC(=O)[C@@H](N)CC(=O)O)C(=O)N[C@@H](CC(C)C)C(=O)NCC(=O)N[C@@H](Cc4ccccc4)C(=O)N[C@@H](Cc4ccc(I)cc4)C(=O)N[C@@H](CCCNC(=N)N)C(=O)N[C@@H](CCCCN)C(=O)N2)NC(=O)[C@H](CSSC[C@@H](C(=O)N[C@@H](CCCCN)C(=O)N[C@@H](Cc2ccc(O)cc2)C(=O)N[C@H](C(=O)N[C@@H](Cc2ccccc2)C(N)=O)C(C)C)NC(=O)[C@H](Cc2c[nH]c4ccccc24)NC(=O)[C@H](CCCCN)NC(=O)[C@H](Cc2c[nH]cn2)NC(=O)[C@H]([C@@H](C)O)NC(=O)[C@H](CCCNC(=N)N)NC(=O)[C@H](CO)NC3=O)NC(=O)[C@H](CCCCN)NC(=O)[C@H](CC(=O)O)NC(=O)[C@H](CC(N)=O)NC(=O)[C@H](CC(=O)O)NC(=O)[C@@H]2CCCN2C1=O` [SEQ ID NO: 291], the pIC50 on hNav1.5 (IonWorks Quattro, clamped to −110 mV, depolarized to −10 mV, 5 min after compound, n=2, read-out: IWQ Use Nav1.5) was 6.02; at hNav1.7 (setting [1]), 7.70.

Consider `CC[C@H](C)[C@@H]1NC(=O)[C@@H]2CSSC[C@@H]3NC(=O)[C@H](C(C)C)NC(=O)[C@H](CC(C)C)NC(=O)[C@H](CC(N)=O)NC(=O)[C@@H]4CCCN4C(=O)[C@H](CCCNC(=N)N)NC(=O)[C@H](CSSC[C@H](NC(=O)[C@@H](N)CC(=O)O)C(=O)N[C@@H](CC(C)C)C(=O)NCC(=O)N[C@@H](Cc4ccccc4)C(=O)N[C@@H](CCSC)C(=O)N[C@@H](CCCNC(=N)N)C(=O)N[C@@H](CCCCN)C(=O)N2)NC(=O)[C@H](CSSC[C@@H](C(=O)N[C@@H](CCCCN)C(=O)N[C@@H](Cc2ccc(O)cc2)C(=O)N[C@H](C(=O)N[C@@H](Cc2ccccc2)C(N)=O)C(C)C)NC(=O)[C@H](Cc2c[nH]c4ccccc24)NC(=O)[C@H](CC(=O)O)NC(=O)[C@H](Cc2c[nH]cn2)NC(=O)[C@H]([C@@H](C)O)NC(=O)[C@H](CCCNC(=N)N)NC(=O)[C@H](CO)NC3=O)NC(=O)[C@H](CCCCN)NC(=O)[C@H](CC(=O)O)NC(=O)[C@H](CC(N)=O)NC(=O)[C@H](CC(=O)O)NC(=O)[C@@H]2CCCN2C1=O` [SEQ ID NO: 750, [Asp28]GpTx-1] (H-DCLGFMRKCIPDNDKCCRPNLVCSRTHDWCKYVF-NH2; disulfide 2-17, 9-23, 16-30), for which the pIC50 on hNav1.5 (read-out: IWQ Use Nav1.5) is 4.42; at hNav1.7 (IonWorks Quattro, use-dependent block, hNav1.7) it was 6.14.

For the compound `CC[C@H](C)[C@@H]1NC(=O)[C@@H]2CSSC[C@@H]3NC(=O)[C@H](C(C)C)NC(=O)[C@H](CC(C)C)NC(=O)[C@H](CC(N)=O)NC(=O)[C@@H]4CCCN4C(=O)[C@H](CCCNC(=N)N)NC(=O)[C@H](CSSC[C@H](NC(=O)[C@@H](N)CC(=O)O)C(=O)N[C@@H](CC(C)C)C(=O)NCC(=O)N[C@@H](Cc4ccccc4)C(=O)N[C@@H](CCSC)C(=O)N[C@@H](CCCNC(=N)N)C(=O)N[C@@H](CCCCN)C(=O)N2)NC(=O)[C@H](CSSC[C@@H](C(=O)N[C@@H](CCCCN)C(=O)N[C@@H](Cc2ccc(O)cc2)C(=O)N[C@H](C(=O)N[C@@H](Cc2ccccc2)C(N)=O)C(C)C)NC(=O)[C@H](Cc2ccccc2)NC(=O)[C@H](CCCCN)NC(=O)[C@H](Cc2c[nH]cn2)NC(=O)[C@H]([C@@H](C)O)NC(=O)[C@H](CCCNC(=N)N)NC(=O)[C@H](CO)NC3=O)NC(=O)[C@H](CCCCN)NC(=O)[C@H](CC(=O)O)NC(=O)[C@H](CC(N)=O)NC(=O)[C@H](CC(=O)O)NC(=O)[C@@H]2CCCN2C1=O` [compound 112] (H-DCLGFMRKCIPDNDKCCRPNLVCSRTHKFCKYVF-NH2; disulfide 2-17, 9-23, 16-30), the pIC50 on hNav1.5 (Table 24, IonWorks Quattro, use, […], read-out: IWQ Use Nav1.5) was 5.21; at hNav1.7 (Table 24, IonWorks Quattro, use, […]) it was 5.66.

Turning to `CSCC[C@@H]1NC(=O)[C@H](Cc2ccccc2)NC(=O)CNC(=O)[C@H](CC(C)C)NC(=O)[C@@H](NC(=O)[C@@H](N)CC(=O)O)CSSC[C@@H]2NC(=O)[C@@H]3CSSC[C@@H](C(=O)N[C@@H](CCCCN)C(=O)N[C@@H](Cc4ccc(O)cc4)C(=O)N[C@H](C(=O)N[C@@H](Cc4ccccc4)C(N)=O)C(C)C)NC(=O)[C@H](Cc4c[nH]c5ccccc45)NC(=O)[C@H](CCCCN)NC(=O)[C@H](Cc4c[nH]cn4)NC(=O)[C@H]([C@@H](C)O)NC(=O)[C@H](CCCNC(=N)N)NC(=O)[C@H](CO)NC(=O)[C@H](CSSC[C@H](NC(=O)[C@H](CCCCN)NC(=O)[C@H](CCCNC(=N)N)NC1=O)C(=O)N[C@@H](CCSC)C(=O)N1CCC[C@H]1C(=O)N[C@@H](CC(=O)O)C(=O)N[C@@H](CC(N)=O)C(=O)N[C@@H](CC(=O)O)C(=O)N[C@@H](CCCCN)C(=O)N3)NC(=O)[C@H](C(C)C)NC(=O)[C@H](CC(C)C)NC(=O)[C@H](CC(N)=O)NC(=O)[C@@H]1CCCN1C(=O)[C@H](CCCNC(=N)N)NC2=O` [compound 307] (H-DCLGFMRKCMPDNDKCCRPNLVCSRTHKWCKYVF-NH2; disulfide 2-17, 9-23, 16-30), the pIC50 at hNav1.5 (IonWorks Quattro, Use, read-out: IWQ Use Nav1.5) was 5.47; at hNav1.7, 7.05.

Consider `CC[C@H](C)[C@@H]1NC(=O)[C@@H]2CSSC[C@@H]3NC(=O)[C@H](C(C)C)NC(=O)[C@H](CC(C)C)NC(=O)[C@H](CC(N)=O)NC(=O)[C@@H]4CCCN4C(=O)[C@H](CCCNC(=N)N)NC(=O)[C@H](CSSC[C@H](NC(=O)[C@@H](N)CC(=O)O)C(=O)N[C@@H](CC(C)C)C(=O)NCC(=O)N[C@@H](Cc4ccccc4)C(=O)N[C@@H](CCSC)C(=O)N[C@@H](CCCNC(=N)N)C(=O)N[C@@H](CCCCN)C(=O)N2)NC(=O)[C@H](CSSC[C@@H](C(=O)N[C@@H](CCCCN)C(=O)N[C@@H](Cc2ccc(O)cc2)C(=O)N[C@H](C(=O)N[C@@H](Cc2ccccc2)C(N)=O)C(C)C)NC(=O)[C@H](Cc2c[nH]c4ccccc24)N(C)C(=O)[C@H](CCCCN)NC(=O)[C@H](Cc2c[nH]cn2)NC(=O)[C@H]([C@@H](C)O)NC(=O)[C@H](CCCNC(=N)N)NC(=O)[C@H](CO)NC3=O)NC(=O)[C@H](CCCCN)NC(=O)[C@H](CC(=O)O)NC(=O)[C@H](CC(N)=O)NC(=O)[C@H](CC(=O)O)NC(=O)[C@@H]2CCCN2C1=O` [compound 357], for which the IC50 at hNav1.5 (IWQ Use Nav1.5 (μM)) is more than 5 µM. The pIC50 on hNav1.3 (Table 24, use) is less than 5.30.

Take `CC[C@H](C)[C@@H]1NC(=O)[C@@H]2CSSC[C@@H]3NC(=O)[C@H](C(C)C)NC(=O)[C@H](CC(C)C)NC(=O)[C@H](CC(N)=O)NC(=O)[C@@H]4CCCN4C(=O)[C@H](CCCNC(=N)N)NC(=O)[C@H](CSSC[C@H](NC(=O)[C@@H](N)CC(=O)O)C(=O)N[C@@H](CC(C)C)C(=O)NCC(=O)N[C@@H](Cc4ccccc4)C(=O)N[C@@H](CCSC)C(=O)N[C@@H](CCCNC(=N)N)C(=O)N[C@@H](CCCCN)C(=O)N2)NC(=O)[C@H](CSSC[C@@H](C(=O)N[C@@H](CCCCN)C(=O)N[C@@H](Cc2ccc(O)cc2)C(=O)N[C@H](C(N)=O)C(C)C)NC(=O)[C@H](Cc2c[nH]c4ccccc24)NC(=O)[C@H](CCCCN)NC(=O)[C@H](Cc2cnc[nH]2)NC(=O)[C@H]([C@@H](C)O)NC(=O)[C@H](CCCNC(=N)N)NC(=O)[C@H](CO)NC3=O)NC(=O)[C@H](CCCCN)NC(=O)[C@H](CC(=O)O)NC(=O)[C@H](CC(N)=O)NC(=O)[C@H](CC(=O)O)NC(=O)[C@@H]2CCCN2C1=O` [compound 415] (H-DCLGFMRKCIPDNDKCCRPNLVCSRTHKWCKYV-NH2; disulfide 2-17, 9-23, 16-30): the pIC50 on hNav1.5 (setting [2]) was 4.96; on hNav1.3 (use-dependent), 5.89.

`CC[C@H](C)[C@@H]1NC(=O)[C@@H]2CSSC[C@@H]3NC(=O)[C@H](C(C)C)NC(=O)[C@H](CC(C)C)NC(=O)[C@H](CC(N)=O)NC(=O)[C@@H]4CCCN4C(=O)[C@H](CCCNC(=N)N)NC(=O)[C@H](CSSC[C@H](NC(=O)[C@@H](N)CC(=O)O)C(=O)N[C@@H](CC(C)C)C(=O)NCC(=O)N[C@@H](Cc4ccccc4)C(=O)N[C@@H](CCSC)C(=O)N[C@@H](CCCNC(=N)N)C(=O)N[C@@H](CCCCN)C(=O)N2)NC(=O)[C@H](CSSC[C@@H](C(=O)N[C@@H](CCCCN)C(=O)N[C@@H](Cc2ccc(O)cc2)C(N)=O)NC(=O)[C@H](Cc2c[nH]c4ccccc24)NC(=O)[C@H](CCCCN)NC(=O)[C@H](Cc2cnc[nH]2)NC(=O)[C@H]([C@@H](C)O)NC(=O)[C@H](CCCNC(=N)N)NC(=O)[C@H](CO)NC3=O)NC(=O)[C@H](CCCCN)NC(=O)[C@H](CC(=O)O)NC(=O)[C@H](CC(N)=O)NC(=O)[C@H](CC(=O)O)NC(=O)[C@@H]2CCCN2C1=O` [compound 416] (H-DCLGFMRKCIPDNDKCCRPNLVCSRTHKWCKY-NH2; disulfide 2-17, 9-23, 16-30): the pIC50 on hNav1.5 (setting [2]) is 5.06; on hNav1.3 (use-dependent), 6.06.
